Test results taken from publication PMC8746705, “Comparison of Experimental Strategies to Study L-Type Amino Acid Transporter 1 (LAT1) Utilization by Ligands” (Molecules, 2021).
Where two headings read alike, the source gives them in different places.

Legend:
LAT1 [1] = molecular target: T1, LAT1 (Mus musculus, UniProt Q9Z127); assay: Cis-inhibition of radiolabelled LAT1-probe substrate uptake into BV2 cells; format: cell-based; conditions: for IC50: 5 min, mean ± SD
Method: (§1) After removal of the culture medium, the BV2 cells were carefully washed with pre-warmed HBSS (Hank’s balanced salt solution) containing 125.0 mM choline chloride, 4.8 mM KCl, 1.2 mM MgSO4, 1.2 mM KH2PO4, 1.3 mM CaCl2, 5.6 mM glucose, and 25.0 mM HEPES (pH 7.4 adjusted with 1 M NaOH). Pre-incubation was done with 500 μL of pre-warmed HBSS at 37 °C for 10 min before adding substrates (250 μL in HBSS) for the uptake experiments.
The ability of compounds 1–15 to inhibit the uptake of a known LAT1 substrate [^14C]-L-leucine was then evaluated by incubating the cells at 37 °C for 5 min in uptake buffer pH 7.4 (250 μL) containing 0.2 µCi/mL of [^14C]-L-leucine, or 2 µCi/mL of [^3H]-L-methionine, [^3H]-L-tryptophan or [^3H]-L-kynurenine (PerkinElmer, Waltham, MA, USA) and 0.1–1000 μM of the studied compound (or HBSS as blank). After incubation, the uptake was stopped by adding 250 µL of ice-cold HBSS, and the cells were washed two times with ice-cold HBSS. The cells were then lysed with 500 μL of NaOH (0.1 M) for 60 min and the lysate was mixed with 3.5 mL of Emulsifier safe cocktail (Ultima Gold, PerkinElmer, Waltham, MA, USA). The radioactivity in the cells was measured by liquid scintillation counting (MicroBeta^2 counter, PerkinElmer Waltham, MA, USA). Half of the maximum inhibitory concentration (IC50) values were calculated by nonlinear regression analysis (fitting the curve to log (concentration) vs. remaining normalized […]).

LAT1 [2] = molecular target: T1, LAT1; assay: Cellular uptake of L-leucine after pre-incubation of BV2 cells with the compounds; format: cell-based; conditions: 100 µM (L-glutamine 2 mM) pre-incubated 10 min or 3 h, L-leucine 1–400 µM, 5 min
Method: The ability of compounds 1–15 to affect the uptake of a known LAT1 substrate L-leucine was evaluated by pre-incubating the BV2 cells at 37 °C for 10 min or 3 h with uptake buffer pH 7.4 (250 μL) containing 100 µM of compounds 1–15 or thyroxin (T4), or known nuclear receptor inducible compounds, phenobarbital (constitutive androstane receptor, CAR), and dexamethasone (pregnane X receptor, PXR) as controls. […] After incubation, the reaction was stopped by adding 250 µL of ice-cold HBSS, and the cells were washed two times with ice-cold HBSS. The cells were then lysed with 500 μL of 0.1 M NaOH (60 min) and the lysate was mixed with 3.5 mL of Emulsifier safe cocktail (Ultima Gold, PerkinElmer, Waltham, MA, USA). The radioactivity in the cells was measured by liquid scintillation counting (MicroBeta^2 counter, PerkinElmer Waltham, MA, USA). The results were multiplied by the amount of un-labeled proportion of L-leucine in each sample.

Transport Type 2 = assay: Concentration-dependent cellular uptake into BV2 cells, Eadie–Hofstee analysis, Transport Type 2; format: cell-based, mouse; conditions: 1–200 µM, 30 min, mean ± SD, n = 3
Method: (§2) For the concentration-dependent cellular uptake experiments, the BV2 cells on 24-well plates were incubated with studied compounds (1–200 μM) in pre-warmed HBSS buffer (250 μL) at 37 °C for 30 min. The experiment was then carried out as described for the time-dependent uptake above and the concentration of studied compounds in the cell lysate was analyzed by the LC-MS/MS methods described above and the results were normalized to the total protein concentration. The distinct transport mechanisms were separated from the Michaelis-Menten kinetics by using Eadie–Hofstee plot.
(§3) The studied compounds (1–15) were analyzed by using Agilent 1200 Series Rapid Resolution LC System together with an Agilent 6410 Triple Quadrupole Mass Spectrometer equipped with an electrospray ionization source (Agilent Technologies, Santa Clara, CA, USA). The chromatographic separations of analytes were achieved by using a reversed-phase Zobrax SB-C18 column (50 mm × 2.1 mm, 1.8 μm; Agilent Technologies, Santa Clara, CA, USA) by eluting the samples with 0.1% formic acid in water (A) and 0.1% formic in ACN (B). Labetalol and diclofenac were used as internal standards (ISTD) for the prodrugs and parent drugs, respectively. The transitions used for the quantification at the positive ion mode and chromatographic conditions of each compound and their parent drugs are listed in Table S1. The methods of compounds 1–11 have been reported earlier, while the methods of compounds 12–15 are reported herein for the first time.

LAT1 [3] = molecular target: T1, LAT1; assay: Cellular uptake of compounds in the presence of LAT1-inhibitor (KMH-233); format: cell-based; conditions: 100 µM compound, 100 µM KMH-233, 30 min, BV2
Method: The competitive uptake in the presence of LAT1-inhibitor (KMH-233) was carried out as described above with HBSS buffer solution containing 100 µM of the studied compounds. The cells were pre-incubated with 100 µM LAT1-inhibitor for 10 min and the incubation mixture was removed before adding the studied compound and LAT1-inhibitor on the cells. The competitive uptake (30 min) with the inhibitor was then carried out as the normal uptake described above. The amounts of studied compounds were analyzed by the LC-MS method and calculated from the spiked standard curve and normalized with the protein concentrations.

LAT1 [4] = molecular target: T1, LAT1; assay: Inhibition type of [14C]-L-Leu uptake (Hanes-Woolf plots) in BV2 cells; format: cell-based; conditions: for Vmax of [14C]-L-Leu uptake: 0.010–0.20 µM [14C]-L-Leu in the presence of the compound at its IC50, mean ± SD, n = 3–4; for Vmax of [14C]-L-Leu uptake / Inhibition Type: BV2; for Inhibition Type: of [14C]-L-Leu uptake, concluded from Km and Vmax
Method: as §1
To evaluate the inhibition type of studied compounds, the BV2 cells were incubated with 0.010–0.20 μM [^14C]-L-leucine together with the studied compound. The concentration of compounds was selected according to the compound-specific IC50 values. The experiment was then carried out as described for the [^14C]-L-leucine uptake above and the radioactivity was measured by liquid scintillation counting. Hanes-Woolf plots were created by setting the ratio of initial substrate concentration to the reaction velocity ([S]/v) against [^14C]-L-leucine concentration (µM). The linear regression was used to calculate Km value (negative value of x-intercept) and Vmax value (1/slope) for [^14C]-L-leucine.

[5] = test system: immortalized mouse microglia (BV2); assay: Time-dependent cellular uptake of compounds into BV2 cells (LC-MS/MS); format: cell-based; conditions: for Max. cellular uptake: 100 µM compound, 1–60 min, mean ± SD, n = 3
Method: (§4) For the time-dependent cellular uptake experiments, the BV2 cells on 24-well plates were incubated with studied compounds (100 μM) in a pre-warmed HBSS buffer (250 μL) at 37 °C for 1–60 min. Subsequently, the cells were washed three times with an ice-cold HBSS and lysed with 250 μL of NaOH (0.1 M) for 60 min. The lysates were diluted with acetonitrile (ACN) including the selected internal standard (diclofenac to all compounds) with a ratio of 1:3 and centrifuged at 10,000× g for 10 min. The samples were analyzed by the liquid chromatography-tandem mass spectrometric (LC-MS/MS) methods as described below. The concentrations of each compound in cell lysates were calculated from the standard curve that was prepared by spiking known amounts of compounds to ACN including the selected internal standard and then normalized with protein concentration. The protein concentrations on each plate were determined as a mean of three samples by Bio-Rad Protein Assay, based on the Bradford dye-binding method, using bovine serum albumin (BSA) as a standard protein and measuring the absorbance (595 nm) by multiplate reader (EnVision, Perkin Elmer, Inc., Waltham, MA, USA).
as §3

[6] = as above; format: cell-based, mouse; conditions: mouse, BV2 microglia cells, 100 µM compound, 1–60 min, mean ± SD, n = 3, read-out: T½ of cellular uptake
Method: as §4, §3

LAT1 [7] = molecular target: T1, LAT1; assay: Concentration-dependent cellular uptake into BV2 cells, Eadie–Hofstee analysis, Transport Type 1 (LAT1); format: cell-based; conditions: 1–200 µM, 30 min, BV2; Eadie–Hofstee; mean ± SD, n = 3
Method: as §2, §3

LAT1 [8] = molecular target: T1, LAT1; set-up: method as in earlier work; conditions: BV2 cells; probe [14C]-L-Leu; mean ± SD; published earlier; ref [31] or [33]; read-out: IC50 of [14C]-L-Leu uptake; cited from earlier work
LAT1 [9] = assay: Quantitative expression of LAT1 on the BV2 plasma membrane (LC-MS proteomics); format: cell-based, mouse; conditions: BV2 cells incubated 24 h; normalized to Na+/K+ATPase; compared to untreated control
Method: The protein expression levels of LAT1, in the plasma membrane fractions of BV2 cells were quantified using multiplexed MRM analysis according to the protocol described by Uchida et al.. First, the crude membrane fractions were isolated from three distinct sets of cell culture plates using Membrane Protein Extraction Kit (BioVision Incorporated, Milpitas, CA, USA) according to the manufacturer’s instructions. The protein content for each fraction was measured by Bio-Rad Protein Assay, based on the Bradford dye-binding method (EnVision, Perkin Elmer, Inc., Waltham, MA, USA). A total amount of 50 µg protein from each fraction was solubilized/denatured in 7 M guanidine hydrochloride, 0.5 M Tris-HCl and 10 mM EDTA-Na. The proteins were then reduced by dithiothreitol (1:50, w/w) and S-carboxymethylated by iodoacetamide (1:20, w/w). The alkylated proteins were precipitated by methanol/chloroform/water (4:1:3) and centrifuged at 18,000× g for 5 min at 4 °C. The pellet was resuspended in 6 M urea and mixed for 10 min at room temperature before the dilution with 0.1 M Tris-HCl (pH 8.5) to a final concentration of 1.2 M urea, and dissolved completely by intermittent sonication (Branson 3510, Danbury, CT, USA). The dissolved proteins were first digested with LysC (1/100, w/w) and 0.05% ProteaseMax (Promega Biotech AB, Nacka, Sweden) for 3 h at room temperature. Then, the samples were spiked with 10 µL (30 fmol) of the labelled peptides for absolute quantification (JPT Peptide Technologies GmbH, Berlin, Germany) (Table S2). The samples were incubated with (1/100, w/w) TPCK-Trypsin (Promega Biotech AB, Nacka, Sweden) for 18 h at 37 °C. The tryptic digestion was then quenched by adding 40 µL of 5% formic acid. The samples were then centrifuged at 18,000× g for 5 min at 4 °C, and the supernatants were transferred to vials for analysis.
The digested peptides were analyzed using an ultra-performance liquid chromatography system coupled with a triple quadrupole mass spectrometer with a heated electrospray ionization source in the positive mode (UPLC 1290 and MSD 6495, Agilent Technologies, Santa Clara, CA, USA). A total amount of 20 µL of the digested peptides (10 µg) was separated using AdvanceBio Peptide Map 2.1 × 250 mm, 2.7 μm column (Agilent Technologies, Santa Clara, CA, USA) and LC eluents of 0.1% formic acid in water (A) and acetonitrile (B). The peptides were eluted following a constant flow rate of 0.3 mL/min and a gradient of 2–7% B for 2 min, followed by 7–30% B for 48 min, 30–45% B for 3 min, and 45–80% B for 2.5 min before re-equilibrating the column again for 4.5 min. LAT1 was quantified based on the ratio between the light and heavy standard peptides, as described previously (Table S2). Data was acquired using Agilent MassHunter Workstation Acquisition (Agilent Technologies, Data Acquisition for Triple Quadrupole, version B.03.01) and processed by using Skyline software (version 20.1). The results were normalized to a housekeeping protein Na+/K+ATPase and expressed as fmol/µg of the total amount of protein in the samples.

[10] = probe [3H]-L-Kynu, n = 3–4, read-out: IC50 of [3H]-L-Kynu uptake
[11] = probe [3H]-L-Met, n = 3–4, read-out: IC50 of [3H]-L-Met uptake
[12] = probe [3H]-L-Trp, n = 3–4, read-out: IC50 of [3H]-L-Trp uptake

T1 sequence (Q9Z127 whole entry): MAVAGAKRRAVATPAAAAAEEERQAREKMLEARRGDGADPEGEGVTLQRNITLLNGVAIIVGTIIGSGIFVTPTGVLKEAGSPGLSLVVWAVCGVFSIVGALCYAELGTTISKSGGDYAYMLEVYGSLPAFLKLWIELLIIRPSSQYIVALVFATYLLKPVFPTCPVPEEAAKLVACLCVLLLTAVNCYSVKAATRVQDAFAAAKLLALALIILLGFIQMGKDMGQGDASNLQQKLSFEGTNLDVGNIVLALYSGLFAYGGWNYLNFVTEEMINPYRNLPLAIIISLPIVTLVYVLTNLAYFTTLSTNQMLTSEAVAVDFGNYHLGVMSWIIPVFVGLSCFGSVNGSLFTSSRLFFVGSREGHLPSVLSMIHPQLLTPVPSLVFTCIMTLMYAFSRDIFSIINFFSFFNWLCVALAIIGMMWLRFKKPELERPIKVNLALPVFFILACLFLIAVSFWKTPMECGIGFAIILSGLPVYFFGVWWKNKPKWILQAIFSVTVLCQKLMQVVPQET
T1 sequence (P10852 whole entry partner): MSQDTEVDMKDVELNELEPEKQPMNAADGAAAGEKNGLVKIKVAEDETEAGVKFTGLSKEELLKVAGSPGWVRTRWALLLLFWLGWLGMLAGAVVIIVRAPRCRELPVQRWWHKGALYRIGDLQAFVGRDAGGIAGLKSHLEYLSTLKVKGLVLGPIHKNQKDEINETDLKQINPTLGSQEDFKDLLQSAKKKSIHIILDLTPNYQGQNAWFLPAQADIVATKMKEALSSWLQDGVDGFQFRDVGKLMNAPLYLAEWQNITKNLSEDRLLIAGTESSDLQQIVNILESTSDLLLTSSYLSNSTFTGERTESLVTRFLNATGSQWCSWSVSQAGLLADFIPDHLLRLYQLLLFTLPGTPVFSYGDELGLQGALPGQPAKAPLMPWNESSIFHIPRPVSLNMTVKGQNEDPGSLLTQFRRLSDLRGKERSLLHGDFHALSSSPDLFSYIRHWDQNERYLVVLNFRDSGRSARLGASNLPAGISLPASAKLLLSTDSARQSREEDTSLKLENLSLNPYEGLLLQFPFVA

Inhibition of LAT1-probe substrate uptake / LAT1 affinity (LAT1 [1]; over all probe substrates)	IC50 (LAT1 [1]; [10]) [µM]	IC50 (LAT1 [1]; [11]) [µM]	IC50 (LAT1 [1]; [12]) [µM]	IC50 (LAT1 [1]; probe [14C]-L-Leu, n = 3–4, read-out: IC50 of [14C]-L-Leu uptake) [µM]	Cellular uptake in the presence of LAT1-inhibitor (LAT1 [3])	Vmax of [14C]-L-Leu uptake (LAT1 [4]) [nmol/min/mg]	Inhibition Type (LAT1 [4])	half-life at 100 μM [6] [min]	Km (LAT1 [7]) [nM]	Transport Type 1 (LAT1) Vmax (LAT1 [7]) [pmol/mg/min]	IC50 (LAT1 [4]; Table 2, compound concentration used in the inhibition type study, corresponding to IC50 of [14C]-L-Leu uptake) [µM]	Compound	Effect on cellular uptake of L-Leu after pre-incubation (LAT1 [2])	Km (Transport Type 2) [µM]	Transport Type 2 Vmax (Transport Type 2) [pmol/mg/min]	Max. cellular uptake [5]	LAT1-substrate or LAT1-binder ([5]; concluded from time-dependent uptake, 100 µM)	IC50 (LAT1 [8]) [µM]	LAT1 expression on the plasma membrane (LAT1 [9])
lower affinity and higher IC50 values	11.9 ± 1.3	17.1 ± 1.9	39.2 ± 1.5	26 ± 1.1	inhibited significantly	2.851 ± 0.035	Non-competitive	1.5 ± 0.67	1900 ± 300	3.7 ± 0.5		CC(C(=O)Nc1ccc(CC(N)C(=O)O)cc1)c1cccc(C(=O)c2ccccc2)c1 (centres unmarked) [Compound 3]	decreased the amount of L-Leu inside the cells	148 ± 41	49 ± 9	1.96 ± 0.14 nmol/mg of protein			
	1.8 ± 1.2	10.4 ± 1.5	14 ± 1.2		only reductive trends were seen	1.515 ± 0.125	Non-competitive		2600 ± 1200	53 ± 8	10	COc1ccc2cc([C@H](C)C(=O)Nc3cccc(C[C@H](N)C(=O)O)c3)ccc2c1 [Compound 11]				4.48 ± 0.37 nmol/mg of protein	LAT1-binders rather than substrates	9 ± 1.1	
												N[C@@H](Cc1cc(I)c(Oc2cc(I)c(O)c(I)c2)c(I)c1)C(=O)O [Compound T4, thyroxin, reference compound]	induced the uptake of L-Leu						downregulated LAT1 expression
